Here are results for 22 compounds from patent publication US12172975B2, “1H-indazole carboxamides as receptor-interacting protein kinase 1 inhibitors (RIPK1)” (BRISTOL-MYERS SQUIBB COMPANY, priority 2018, dated 2024).

Structures can show the parent of a compound that is named as a salt. Where two headings read alike, the source gives them in different places.

Usually IC50 stands for the concentration that gives 50% inhibition.

In experiment [1] the test system is MLKL phosphorylation in HT29-L23 human colorectal adenocarcinoma cells. As to the kind of experiment: MLKL Phosphorylation High-Content Assay. The class given is cell-based. The settings on record: 6 h, necroptosis induced with TNFα, SMAC mimetic and Z-VAD, read-out: pMLKL (IC50). The procedure, abridged:
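Following fixation and staining for phospho-S358 MLKL with Hoechst nuclear counterstain, high-content imaging quantified phosphorylation in HT29-L23 cells challenged 6 h with TNFα 35 ng/mL, SMAC mimetic 700 nM and Z-VAD 140 nM. Nec-1s at 6.25 μM defined full inhibition; 4-parameter logistic fits yielded IC50 and Ymax.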

Experiment [2] addresses T1, His-GST-TVMV-hRIPK1 (1-324) (Homo sapiens (Human), UniProt Q13546). As to the kind of experiment: biochemical.
Experiment [3] concerns the target T1, His-GST-TVMV-hRIPK1 (1-324). As to the kind of experiment: RIPK1 HTRF Binding Assay. The settings on record: read-out: RIPK1 HTRF (IC50); FRET probe displacement, 1 h at rt.

T1 sequence (Q13546 1-324): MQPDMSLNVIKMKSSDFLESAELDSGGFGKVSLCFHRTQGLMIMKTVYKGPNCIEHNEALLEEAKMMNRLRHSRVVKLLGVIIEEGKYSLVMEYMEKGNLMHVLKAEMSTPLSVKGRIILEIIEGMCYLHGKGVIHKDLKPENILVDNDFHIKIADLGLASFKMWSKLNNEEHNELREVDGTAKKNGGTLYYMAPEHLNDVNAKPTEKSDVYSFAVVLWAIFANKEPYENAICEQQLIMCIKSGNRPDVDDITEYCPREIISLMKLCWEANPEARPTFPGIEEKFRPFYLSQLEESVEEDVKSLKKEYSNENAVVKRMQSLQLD

Take `[2H]C([2H])([2H])Oc1ncc(-c2ccc3c(C(=O)NC(C)C)n[nH]c3c2)cc1C(=O)NC(C)c1ccccc1OC(F)(F)F` (racemic) [Example 22, (rac)-N-isopropyl-6-(6-methoxyd3-5-((1-(2-(trifluoromethoxy)phenyl)ethyl)carbamoyl)pyridin-3-yl)-1H-indazole-3-carboxamide]: the IC50 was found to be 440 nM in experiment [1] (Homo sapiens) and 100 nM in experiment [2].
For the compound `CNC(=O)c1n[nH]c2cc(-c3cnc(OC)c(C(=O)NC(C)c4ccccc4OC(F)(F)F)c3)cc(F)c12` (racemic) [Example 24, 4-fluoro-6-[6-methoxy-5-({1-[2-(trifluoromethoxy)phenyl]ethyl}carbamoyl)pyridin-3-yl]-N-methyl-1H-indazole-3-carboxamide], the 50% inhibitory concentration (IC50) in experiment [1] (Homo sapiens) came to 11 nM; in experiment [2], 5.4 nM.
`[2H]C([2H])([2H])Oc1ncc(-c2ccc3c(C(=O)NC4CC4)n[nH]c3c2)cc1C(=O)N[C@@H](C)c1cc(C(F)(F)F)ccc1F` [Example 194, N-cyclopropyl-6-(5-{[(1S)-1-[2-fluoro-5-(trifluoromethyl)phenyl]-ethyl]carbamoyl}-6-(deutero)meth-oxypyridin-3-yl)-1H-indazole-3-carboxamide]: the results for the IC50 in experiment [1] (Homo sapiens) and in experiment [3] were 52 nM and 67 nM, respectively.
On to `COc1ncc(-c2ccc3c(C(=O)NC4CC4)n[nH]c3c2)cc1C(=O)N[C@@H]1CN(C(=O)C2CCC(F)(F)C2)C[C@@H]1F` (stereo partly drawn) [Example 199, N-cyclopropyl-6-(5-{[(3R,4S)-1-(3,3-difluorocyclopentanecarbon-yl)-4-fluoropyrrolidin-3-yl]-carbamoyl}-6-(deutero)methoxy-pyridin-3-yl)-1H-indazole-3-carboxamide, TFA], for which the IC50 was determined as 99 nM in experiment [1] and 340 nM in experiment [3].
As to `[2H]C([2H])([2H])Oc1ncc(-c2ccc3c(C(=O)NC4CC4)n[nH]c3c2)cc1C(=O)NCC(C)(C)C(=O)OC(C)(C)C` [Example 200, tert-butyl 3-({5-[3-(cyclopropyl-carbamoyl)-1H-indazol-6-yl]-2-(deutero)methoxypyridin-3-yl}-formamido)-2,2-dimethyl-propanoate], the half-inhibitory concentration (IC50) in experiment [1] (Homo sapiens) was 79 nM; in experiment [3], 130 nM.
With `[2H]C([2H])([2H])Oc1ncc(-c2ccc3c(C(=O)NC4CC4)n[nH]c3c2)cc1C(=O)N[C@H](C)c1cc(OC(F)(F)F)ccc1F` [Example 201, N-cyclopropyl-6-(5-{[(1R)-1-[2-fluoro-5-(trifluoromethoxy)-phenyl]ethyl]carbamoyl}-6-(deutero)methoxypyridin-3-yl)-1H-indazole-3-carboxamide], the IC50 came out at 110 nM in experiment [1] (Homo sapiens) and 11 nM in experiment [3].
The like results for `[2H]C([2H])([2H])Oc1ncc(-c2ccc3c(C(=O)NC4CC4)n[nH]c3c2)cc1C(=O)N[C@H](C)c1cccc(OC(F)(F)F)c1` [Example 202, N-cyclopropyl-6-[6-(deutero)-methoxy-5-{[(1R)-1-[3-(trifluoro-methoxy)phenyl]ethyl]carbam-oyl}pyridin-3-yl]-1H-indazole-3-carboxamide] were, in that order, 53 nM and 36 nM.
The corresponding values for `[2H]C([2H])([2H])Oc1ncc(-c2ccc3c(C(=O)NC4CC4)n[nH]c3c2)cc1C(=O)NC1CCCC(C(=O)N2CCC(F)(F)C2)C1` (centres unmarked) [Example 203, N-cyclopropyl-6-(5-{[3-(3,3-difluoropyrrolidine-1-carbonyl)-cyclohexyl]carbamoyl}-6-(deutero)methoxypyridin-3-yl)-1H-indazole-3-carboxamide, TFA] are 95 nM and 12 nM.
The like results for `[2H]C([2H])([2H])Oc1ncc(-c2ccc3c(C(=O)NC4CC4)n[nH]c3c2)cc1C(=O)NC1CCCC(C(=O)N2CCCC2)C1` (centres unmarked) [Example 204] were, in that order, 84 nM and 12 nM.
Turning to `COc1ncc(-c2ccc3c(C(=O)NC4CC4)n[nH]c3c2)cc1C(=O)N[C@H](C)c1cccc(OC(F)(F)F)c1` [Example 205, N-cyclopropyl-6-[6-(deutero)-methoxy-5-{[(1R)-1-[3-(trifluoro-methoxy)phenyl](2,2,2-deutero)-ethyl]carbamoyl}pyridin-3-yl]-1H-indazole-3-carboxamide, TFA], the IC50 in experiment [1] was found to be 60 nM; in experiment [3] it was 20 nM.
The like results for `COc1ncc(-c2ccc3c(C(=O)NC4CC4)n[nH]c3c2)cc1C(=O)N[C@@H](C)c1cc(OC(F)(F)F)ccc1F` [Example 206, N-cyclopropyl-6-(5-{[(1S)-1-[2-fluoro-5-(trifluoromethoxy)-phenyl](2,2,2-deutero)ethyl]-carbamoyl}-6-(deutero)methoxy-pyridin-3-yl)-1H-indazole-3-carboxamide] were, in that order, 3.8 nM and 220 nM.
Consider `COc1ncc(-c2ccc3c(C(=O)NC4CC4)n[nH]c3c2)cc1C(=O)N[C@H](C)c1cc(OC(F)(F)F)ccc1F` [Example 207, N-cyclopropyl-6-(5-{[(1R)-1-[2-fluoro-5-(trifluoromethoxy)-phenyl](2,2,2-deutero)ethyl]-carbamoyl}-6-(deutero)methoxy-pyridin-3-yl)-1H-indazole-3-carboxamide], for which the IC50 in experiment [1] was found to be 110 nM; in experiment [3], 53 nM.
The like results for `COc1ncc(-c2ccc3c(C(=O)NC4CC4)n[nH]c3c2)cc1C(=O)N[C@@H](C)c1cc(C(F)(F)F)ccc1F` [Example 208, N-cyclopropyl-6-(5-{[(1S)-1-[2-fluoro-5-(trifluoromethyl)phenyl]-(2,2,2-deutero)ethyl]carbamoyl}-6-(deutero)methoxypyridin-3-yl)-1H-indazole-3-carboxamide, TFA] were, in that order, 18 nM and 27 nM.
Regarding `[2H]C([2H])([2H])Oc1ncc(-c2ccc3c(C(=O)NC4CC4)n[nH]c3c2)cc1C(=O)N[C@H](C)c1cccc(C(F)(F)F)c1` [Example 210, N-cyclopropyl-6-[6-(deutero)meth-oxy-5-{[(1R)-1-[3-(trifluorometh-yl)phenyl]ethyl]carbamoyl}pyridin-3-yl]-1H-indazole-3-carboxamide], the values for the concentration for half-maximal inhibition (IC50) in experiment [1] (Homo sapiens) and in experiment [3] were 88 nM and 450 nM, respectively.
In the case of `[2H]C([2H])([2H])NC(=O)c1n[nH]c2cc(-c3cnc(OC([2H])([2H])[2H])c(C(=O)NC(C)c4cc(F)ccc4C(F)(F)F)c3)ccc12` (centres unmarked) [Example 212], the IC50 turned out to be 28 nM in experiment [1] (Homo sapiens) and 15 nM in experiment [3].
The corresponding values for `[2H]C([2H])([2H])NC(=O)c1n[nH]c2cc(-c3cnc(OC([2H])([2H])[2H])c(C(=O)N[C@@H](C)c4cccc(C(F)(F)F)c4)c3)ccc12` [Example 214, 6-[6-(deutero)methoxy-5-{[(1S)-1-[3-(trifluoromethyl)phenyl]ethyl]carbam-oyl}pyridin-3-yl]-N-(deutero)methyl-1H-indazole-3-carboxamide] are 36 nM and 9.8 nM.
`[2H]C([2H])([2H])Oc1ncc(-c2ccc3c(C(=O)NC([2H])([2H])C([2H])([2H])[2H])n[nH]c3c2)cc1C(=O)NC(C)c1cc(F)ccc1C(F)(F)F` (centres unmarked) [Example 228, N-[(1,1,2,2,2-deutero)ethyl]-6-[5-({1-[5-fluoro-2-(trifluoromethyl)-phenyl]ethyl}carbamoyl)-6-(deutero)methoxypyridin-3-yl]-1H-indazole-3-carboxamide]: the IC50 is 51 nM in experiment [1] (Homo sapiens) and 58 nM in experiment [3].
With `CCNC(=O)c1n[nH]c2cc(-c3cnc(OC)c(C(=O)N[C@H](C)c4cccc(OC(F)(F)F)c4)c3)ccc12` [Example 232, N-[(1,1,2,2,2-deutero)ethyl]-6-[6-(deutero)methoxy-5-{[(1R)-1-[3-(trifluoromethoxy)phenyl](2,2,2-deutero)ethyl]carbamoyl}pyridin-3-yl]-1H-indazole-3-carboxamide], the IC50 in experiment [1] stood at 26 nM; in experiment [3] it was 33 nM.
Take `CCNC(=O)c1n[nH]c2cc(-c3cnc(OC)c(C(=O)N[C@H](C)c4cc(OC(F)(F)F)ccc4F)c3)ccc12` [Example 233, N-[(1,1,2,2,2-deutero)ethyl]-6-(5-{[(1R)-1-[2-fluoro-5-(trifluorometh-oxy)phenyl](2,2,2-deutero)ethyl]-carbamoyl}-6-(deutero)methoxy-pyridin-3-yl)-1H-indazole-3-carbox-amide]: the results for the IC50 in experiment [1] and in experiment [3] were 77 nM and 54 nM, respectively.
For `CCNC(=O)c1n[nH]c2cc(-c3cnc(OC)c(C(=O)N[C@H](C)c4cc(C(F)(F)F)ccc4F)c3)ccc12` [Example 234, N-[(1,1,2,2,2-deutero)ethyl]-6-(5-{[(1R)-1-[2-fluoro-5-(trifluorometh-yl)phenyl](2,2,2-deutero)ethyl]-carbamoyl}-6-(deutero)methoxy-pyridin-3-yl)-1H-indazole-3-carbox-amide], the values for the IC50 in experiment [1] and in experiment [3] were 20 nM and 8.7 nM, respectively.
For `CCNC(=O)c1n[nH]c2cc(-c3cnc(OC)c(C(=O)N[C@@H](C)c4cc(C(F)(F)F)ccc4F)c3)ccc12` [Example 236, N-[(1,1,2,2,2-deutero)ethyl]-6-(5-{[(1S)-1-[2-fluoro-5-(trifluorometh-yl)phenyl](2,2,2-deutero)ethyl]-carbamoyl}-6-(deutero)methoxy-pyridin-3-yl)-1H-indazole-3-carbox-amide], the IC50 was determined as 40 nM in experiment [1] and 37 nM in experiment [3].
The corresponding values for “N-[(1,1,2,2,2-deutero)ethyl]-6-(5- {[(1R)-1-[2-fluoro-5-(trifluoro- methoxy)phenyl]ethyl]carbamoyl}- 6-(deutero)methoxypyridin-3-yl)- 1H-indazole-3-carboxamide [Example 225]” are 91 nM and 43 nM.
